Test results published in patent US20060154323A1, “Method for obtaining dynamic and structural data pertaining to proteins and protein/ligand complexes” (ProSpect Pharma, priority 2002, published 2006).
pKd: −log10 of the molar value.

How the values were obtained:
Mouse Urinary Protein = target: T1, Mouse Urinary Protein (Mus musculus, UniProt P11588); test: 13C NMR relaxation (T1, T2) of valine 13CHD2-labeled MUP in absence and presence of ligand; details: for T1, Change / T2, Change: Protein vs Bound Protein; for T1, Bound Protein / T2, Bound Protein: 298 K;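 for T1, Bound Protein: unit milliseconds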;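 for T2, Bound Protein: unit milliseconds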
T1 construct: made in house; host or cells: E. coli M15 cells with vector pqe30 MUP
T1 sequence (P11588 19-180): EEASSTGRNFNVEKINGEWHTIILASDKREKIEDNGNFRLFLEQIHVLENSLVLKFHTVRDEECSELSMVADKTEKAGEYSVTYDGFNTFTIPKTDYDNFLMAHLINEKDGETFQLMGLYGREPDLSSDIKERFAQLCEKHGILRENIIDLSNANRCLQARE
Protocol: A 15 mg sample of L-valine-α-D-^12CD(^13CHD2)2 labeled MUP was dissolved in 650 μL phosphate buffered saline (10 mM potassium phosphate; 200 mM sodium chloride), to which was added 50 μL deuterium oxide. ^13C Relaxation rates (R2 and R1) of ^13CHD2 groups were determined using pulse sequences as described in Ishima et al., J. Am. Chem. Soc. 121:11589-11590 (1999). Spectral parameters were as follows: spectral width in the ^13C dimension, 900 Hz; spectral width in the ^1H dimension, 5200 Hz; number of real data points in the ^13C dimension, 128; number of real points in the ^1H dimension, 1408; number of transients per t1 increment, 8; probe temperature, 298 K. Prior to two-dimensional Fourier transformation, free induction decays were apodized with cosine-bell windowing functions according to known methods.
The NMR analysis was then repeated following addition of the small molecule ligand 1 μL of isobutyl pyrazine or 1 μL of isopropyl pyrazine to separate solutions of MUP. The data shown below in Tables I and II and in FIG. 8 were obtained, clearly showing the changes in T1 and T2 values obtained on addition of these small molecule ligands.

MUP [1] = target: T2, MUP (Mus musculus, UniProt P11588); test: 13C-1H HSQC spectra of valine-enriched MUP complexes; details: 13C-1H HSQC of complexes with valine-enriched MUP
T2 construct: made in house; host or cells: E. coli M15 cells with vector pqe30 MUP
T2 sequence (P11588 19-180): T1 sequence (P11588 19-180)

Major Urinary Protein = target: T3, Major Urinary Protein (Mus musculus, UniProt P11588); test: S2axis order parameters of valine methyl groups from 600 MHz 13C R1/R2 relaxation of valine-enriched MUP and its complexes; details: for S^2axis: MUP-ligand complex, 600 MHz, 30° C., pH 7.0
T3 construct: made in house; host or cells: E. coli M15 cells with vector pqe30 MUP
T3 sequence (P11588 19-180): T1 sequence (P11588 19-180)
Protocol: Samples of [^13C^γ1,^γ2HD2]-U-^2H valine enriched MUP both alone and complexed with 2-methoxy-3-isopropylpyrazine and 2-methoxy-3-isobutylpyrazine were prepared from a single sample at pH 7.0 and a protein concentration of 1 mM. A further sample of methyl-^13C, ^2H enriched MUP was prepared at pH 7.0 and a protein concentration of 0.5 mM. Longitudinal (R1) and transverse (R2) ^13C relaxation rates were determined essentially as described by Ishima et al., J. Am. Chem. Soc. 121:11589-11590, 1999. All spectra were recorded at a proton frequency of 600 MHz and a probe temperature of 30° C. R1 rates were determined with relaxation delay times of 16, 64, 128, 240, 400, 720, 1120, 1600, 2240 and 2880 milliseconds. R2 rates were determined with relaxation delay times of 16, 32, 48, 64, 96, 160, 192, 240 and 288 milliseconds, and an effective field strength of 2 kHz. Relaxation data were fit to a single exponential decay function I=I0exp(−tR), where I0 is the initial resonance intensity, t is the relaxation delay time and R is the relaxation rate (R1 or R2). Relaxation data were fitted to the Lipari-Szabo model-free spectral density of the form: J(ω)=S^2τm/(1+ω^2τ^2m)+(1−S^2)τi/(1+ω^2τi^2), where τi^−1=τM^−1+τe^−1, τM is the overall molecular tumbling correlation time and τe is the effective internal correlation time. See Lipari and Szabo, J. Am. Chem. Soc. 104:4546-4559, 1982. This equation is valid for fast internal motions, τe<<τM, under which conditions the order parameter for methyl CH dipolar relaxation is given by S^2=Saxis^2[P2(cos θH]^2. Saxis^2 is the order parameter of the methyl rotation axis and θH is the angle made by the axis and the CH bond vector. A global rotational correlation time of […] was used for these calculations, according to the previously reported value. Zidek et al., Nature Str. Biol. 6:1118-1121, 1999. Although the valine residues were perdeuterated at non-methyl positions, the protein was otherwise protonated, and dipolar relaxation due to these “external” protons is not negligible for ^13C relaxation. Thus, by analogy with the work of Ishima et al. J. Am. Chem. Soc. 123:6164-6171, 2001, the contribution of these external protons to ^13C R2 values was estimated at 25% from the X-ray coordinates of MUP. Consequently, measured ^13C R^2 rates were multiplied by 0.75 to account for these external dipolar relaxation processes.

MUP [2] = target: T2, MUP; test: Binding of small hydrophobic ligands to MUP (Kd)
[3] = valine methyl 59.HG1 (first line)
[4] = valine methyl 59.HG1 (second line)

Question: `COc1nccnc1CC(C)C` [2-methoxy-3-isobutylpyrazine] was tested. Which “T1, Change” value (Mouse Urinary Protein; 12.HG1) did it give?
Answer: 35.219 milliseconds

Question: And the “T2, Change” value (Mouse Urinary Protein; 12.HG1)?
Answer: −13.500 milliseconds

Question: And the “T2, Change” value (Mouse Urinary Protein; 12.HG2)?
Answer: −16.796 milliseconds

Question: And the “T1, Change” value (Mouse Urinary Protein; 47.HG1)?
Answer: 9.550 milliseconds

Question: And the “T2, Change” value (Mouse Urinary Protein; 47.HG1)?
Answer: −16.055 milliseconds

Question: What about the “T1, Change” value (Mouse Urinary Protein; 47.HG2) of the same molecule?
Answer: −82.069 milliseconds

Question: And the “T2, Change” value (Mouse Urinary Protein; 47.HG2)?
Answer: −12.196 milliseconds

Question: And the “T1, Change” value (Mouse Urinary Protein; 53.HG1)?
Answer: −98.976 milliseconds

Question: And the “T2, Change” value (Mouse Urinary Protein; 53.HG1)?
Answer: −10.901 milliseconds

Question: What about the “T1, Change” value (Mouse Urinary Protein; 53.HG2) of the same molecule?
Answer: 17.840 milliseconds

Question: What about the “T2, Change” value (Mouse Urinary Protein; 53.HG2) of the same molecule?
Answer: −13.096 milliseconds

Question: And the “T1, Change” value (Mouse Urinary Protein; 59.HG1 (first line))?
Answer: −84.312 milliseconds

Question: And the “T2, Change” value (Mouse Urinary Protein; 59.HG1 (first line))?
Answer: −22.344 milliseconds

Question: What about the “T1, Change” value (Mouse Urinary Protein; 59.HG1 (second line)) of the same molecule?
Answer: 20.312 milliseconds

Question: And the “T2, Change” value (Mouse Urinary Protein; 59.HG1 (second line))?
Answer: −3.040 milliseconds

Question: And the “T1, Change” value (Mouse Urinary Protein; 70.HG1)?
Answer: 379.619 milliseconds

Question: What about the “T2, Change” value (Mouse Urinary Protein; 70.HG1) of the same molecule?
Answer: −65.766 milliseconds

Question: And the “T1, Change” value (Mouse Urinary Protein; 70.HG2)?
Answer: −324.602 milliseconds

Question: What about the “T2, Change” value (Mouse Urinary Protein; 70.HG2) of the same molecule?
Answer: 33.869 milliseconds

Question: And the “T1, Change” value (Mouse Urinary Protein; 82.HG1)?
Answer: 1.260 milliseconds

Question: What about the “T2, Change” value (Mouse Urinary Protein; 82.HG1) of the same molecule?
Answer: 7.645 milliseconds

Question: And the “T1, Change” value (Mouse Urinary Protein; 82.HG2)?
Answer: −33.349 milliseconds

Question: And the “T2, Change” value (Mouse Urinary Protein; 82.HG2)?
Answer: 22.399 milliseconds

Question: What about the “contribution of valine side-chains to the entropy of binding” value (Mouse Urinary Protein; from relaxation data in the presence of ligand) of the same molecule?
Answer: do not contribute significantly

Question: What about the “T1, Bound Protein” value (Mouse Urinary Protein; valine methyl 12.HG1) of the same molecule?
Answer: 1760.141 milliseconds

Question: What about the “T2, Bound Protein” value (Mouse Urinary Protein; valine methyl 12.HG1) of the same molecule?
Answer: 166.608 milliseconds

Question: What about the “T2, Bound Protein” value (Mouse Urinary Protein; valine methyl 12.HG2) of the same molecule?
Answer: 200.110 milliseconds

Question: What about the “T1, Bound Protein” value (Mouse Urinary Protein; valine methyl 47.HG1) of the same molecule?
Answer: 1619.169 milliseconds

Question: And the “T2, Bound Protein” value (Mouse Urinary Protein; valine methyl 47.HG1)?
Answer: 171.287 milliseconds

Question: And the “T1, Bound Protein” value (Mouse Urinary Protein; valine methyl 47.HG2)?
Answer: 1072.690 milliseconds

Question: And the “T2, Bound Protein” value (Mouse Urinary Protein; valine methyl 47.HG2)?
Answer: 162.950 milliseconds

Question: And the “T1, Bound Protein” value (Mouse Urinary Protein; valine methyl 53.HG1)?
Answer: 2332.247 milliseconds

Question: What about the “T2, Bound Protein” value (Mouse Urinary Protein; valine methyl 53.HG1) of the same molecule?
Answer: 174.600 milliseconds

Question: And the “T1, Bound Protein” value (Mouse Urinary Protein; valine methyl 53.HG2)?
Answer: 1382.566 milliseconds

Question: What about the “T2, Bound Protein” value (Mouse Urinary Protein; valine methyl 53.HG2) of the same molecule?
Answer: 163.379 milliseconds

Question: What about the “T1, Bound Protein” value (Mouse Urinary Protein; [3]) of the same molecule?
Answer: 1367.075 milliseconds

Question: What about the “T2, Bound Protein” value (Mouse Urinary Protein; [3]) of the same molecule?
Answer: 200.992 milliseconds

Question: And the “T1, Bound Protein” value (Mouse Urinary Protein; [4])?
Answer: 1502.825 milliseconds

Question: And the “T2, Bound Protein” value (Mouse Urinary Protein; [4])?
Answer: 150.756 milliseconds

Question: And the “T1, Bound Protein” value (Mouse Urinary Protein; valine methyl 70.HG1)?
Answer: 1701.953 milliseconds

Question: And the “T2, Bound Protein” value (Mouse Urinary Protein; valine methyl 70.HG1)?
Answer: 186.968 milliseconds

Question: And the “T1, Bound Protein” value (Mouse Urinary Protein; valine methyl 70.HG2)?
Answer: 1488.130 milliseconds

Question: What about the “T2, Bound Protein” value (Mouse Urinary Protein; valine methyl 70.HG2) of the same molecule?
Answer: 128.164 milliseconds

Question: What about the “T1, Bound Protein” value (Mouse Urinary Protein; valine methyl 82.HG1) of the same molecule?
Answer: 913.641 milliseconds

Question: What about the “T2, Bound Protein” value (Mouse Urinary Protein; valine methyl 82.HG1) of the same molecule?
Answer: 216.738 milliseconds

Question: And the “T1, Bound Protein” value (Mouse Urinary Protein; valine methyl 82.HG2)?
Answer: 703.150 milliseconds

Question: What about the “T2, Bound Protein” value (Mouse Urinary Protein; valine methyl 82.HG2) of the same molecule?
Answer: 201.054 milliseconds

Question: And the “shift perturbations of Val 82 γ1 and γ2 correlations” value (MUP [1])?
Answer: Significant shift perturbations

Question: And the “changes in Saxis^2 of the six valine residues in MUP upon binding” value (Major Urinary Protein)?
Answer: only minor changes

Question: What about the “S^2axis” value (Major Urinary Protein; Val-12 C^γ1) of the same molecule?
Answer: 0.86

Question: What about the “S^2axis” value (Major Urinary Protein; Val-12 C^γ2) of the same molecule?
Answer: 0.66

Question: What about the “S^2axis” value (Major Urinary Protein; Val-47 C^γ1) of the same molecule?
Answer: 0.86

Question: And the “S^2axis” value (Major Urinary Protein; Val-47 C^γ2)?
Answer: 0.88

Question: What about the “S^2axis” value (Major Urinary Protein; Val-53 C^γ1) of the same molecule?
Answer: 0.78

Question: What about the “S^2axis” value (Major Urinary Protein; Val-53 C^γ2) of the same molecule?
Answer: 0.86

Question: What about the “S^2axis” value (Major Urinary Protein; Val-59 C^γ1) of the same molecule?
Answer: 0.63

Question: What about the “S^2axis” value (Major Urinary Protein; Val-59 C^γ2) of the same molecule?
Answer: 0.90

Question: What about the “S^2axis” value (Major Urinary Protein; Val-70 C^γ1) of the same molecule?
Answer: 0.81

Question: What about the “S^2axis” value (Major Urinary Protein; Val-70 C^γ2) of the same molecule?
Answer: [1.03]

Question: What about the “S^2axis” value (Major Urinary Protein; Val-82 C^γ1) of the same molecule?
Answer: 0.53

Question: And the “S^2axis” value (Major Urinary Protein; Val-82 C^γ2)?
Answer: 0.53

Question: What about the “contribution of valine side-chains to the entropy of binding” value (Major Urinary Protein; from computations of Saxis^2 values, free protein and complexes) of the same molecule?
Answer: do not contribute significantly

Question: What about the pKd (MUP [2]) of the same molecule?
Answer: 7.10
